Results on 1 molecule are retold here after US20040176350A1, “Carbapenem compound” (priority 2001, published 2004).

This data set is described as follows: oral absorption test in rats: plasma concentration of meropenem produced by hydrolysis, by HPLC. The conditions noted are these: 20 mg/kg oral, cilastatin 50 mg/kg pre-administered. Type of data set: in vivo. How it is done: An enzyme inhibitor (cilastatin) (50 mg/kg) was pre-administered to rats (3 per group) and the compound of the present invention (compound of Example 1, 20 mg/kg) was orally administered. The plasma concentration of meropenem produced by hydrolysis was measure at 0.125, 0.25, 0.5, 1.0, 1.5, 2.0 and 3.0 hr by HPLC and the area under plasma concentration-time curve (AUC) was determined.

With `CCCC(=O)OCOC(=O)N1C[C@@H](SC2=C(C(=O)OCOC(=O)C(C)(C)C)N3C(=O)[C@H]([C@@H](C)O)[C@H]3[C@H]2C)C[C@H]1C(=O)N(C)C` [Example 1, pivaloyloxymethyl (1R,5S,6S)-2-[(3S,5S)-(5-N,N-dimethylaminocarbonyl-1-butyryloxymethyloxycarbonyl)-pyrrolidin-3-ylthio]-6-[(1R)-1-hydroxyethyl]-1-methylcarbapen-2-em-3-carboxylate], the AUC0-3 hr (area under plasma concentration-time curve of meropenem) worked out at 5.06 µg·h/mL. Also, the Average plasma concentration was 0.62 µg/mL (meropenem in plasma at 0.125 hr); 1.31 µg/mL (meropenem in plasma at 0.25 hr); 2.31 µg/mL (meropenem in plasma at 0.5 hr); 2.59 µg/mL (meropenem in plasma at 1.0 hr); 2.27 µg/mL (meropenem in plasma at 1.5 hr); 1.56 µg/mL (meropenem in plasma at 2.0 hr). Besides, the Average plasma concentration (meropenem in plasma at 3.0 hr) is 0.55 µg/mL.
